Test results published in patent US8933110B2, “Hepatitis C virus inhibitors” (Enanta Pharmaceuticals, Inc., priority 2010, dated 2015).
Like-named read-outs stand apart in the source and are kept apart here.

Test system: HCV 1b genotype replicon
Experiment: HCV replicon assay (qRT-PCR or luciferase), genotype 1b
Format: cell-based
Settings: Hepatitis C virus
From the text: HCV replicon cell lines (kindly provided by R. Bartenschlager) isolated from colonies as described by Lohman et al. (Lohman et al. (1999) Science 285: 110-113, expressly incorporated by reference in its entirety) and used for all experiments. The HCV replicon has the nucleic acid sequence set forth in EMBL Accession No.: AJ242651, the coding sequence of which is from nucleotides 1801 to 8406.
The coding sequence of the published HCV replicon was synthesized and subsequently assembled in a modified plasmid pBR322 (Promega, Madison, Wis.) using standard molecular biology techniques. One replicon cell line (“SGR 11-7”) stably expresses HCV replicon RNA which consists of (i) the HCV 5′UTR fused to the first 12 amino acids of the capsid protein, (ii) the neomycin phosphotransferase gene (neo), (iii) the IRES from encephalomyocarditis virus (EMCV) and (iv) HCV NS2 to NS5B genes and the HCV 3′UTR. Another replicon cell line (“Huh-luc/neo-ET”) described by Vrolijk et. al. (Vrolijk et. al. (2003) Journal of Virological Methods 110:201-209, expressly incorporated by reference in its entirety) stably expresses HCV replicon RNA which consists of (i) the HCV 5′UTR fused to the first 12 amino acids of the capsid protein, (ii) the firefly luciferase reporter gene, (iii) the ubiquitin gene, (iv) the neomycin phosphotransferase gene (neo), (v) the IRES from encephalomyocarditis virus (EMCV) and (vi) HCV NS3 to NS5B genes that harbor cell culture adaptive mutations (E1202G, T12801, K1846T) and the HCV 3′UTR.
These cell lines are maintained at 37° C., 5% CO2, 100% relative humidity in DMEM (Cat#11965-084, Invitrogen), with 10% fetal calf serum (“FCS”, Invitrogen), 1% non-essential amino acids (Invitrogen), 1% of Glutamax (Invitrogen), 1% of 100× penicillin/streptomycin (Cat#15140-122, Invitrogen) and Geneticin (Cat#10131-027, Invitrogen) at 0.75 mg/ml or 0.5 mg/ml for 11-7 and Huh-luc/neo-ET cells, respectively.
EC50 values of single agent compounds were determined by HCV RNA detection using quantitative RT-PCR, according to the manufacturer's instructions, with a TAQMAN® One-Step RT-PCR Master Mix Reagents Kit (Cat#AB 4309169, Applied Biosystems) on an ABI Model 7500 thermocycler. EC50 values of combinations are similarly determined by HCV RNA detection using quantitative RT-PCR. The TAQMAN primers to use for detecting and quantifying HCV RNA obtained from Integrated DNA Technologies. HCV RNA is normalized to GAPDH RNA levels in drug-treated cells, which is detected and quantified using the Human GAPDH Endogenous Control Mix (Applied Biosystems, AB 4310884E). Total cellular RNA is purified from 96-well plates using the RNAqueous 96 kit (Ambion, Cat#AM1812). Chemical agent cytotoxicity is evaluated using an MTS assay according to the manufacturer's directions (Promega).
Since clinical drug resistance often develops in viral infections following single agent therapies, there is a need to assess the additive, antagonistic, or synergistic properties of combination therapies. We use the HCV replicon system to assess the potential use of the compound of the present invention or in combination therapies with Interferon alpha, cyclosporine analogs and inhibitors targeting other HCV proteins. The acute effects of a single or combinations of drugs are studied in the “Huh-luc/neo-ET” replicon with each chemical agent titrated in an X or Y direction in a 6 point two-fold dilution curve centered around the EC50 of each drug. Briefly, replicon cells are seeded at 7,000 cells per well in 90 ul DMEM (without phenol red, Invitrogen Cat.#31053-036) per well with 10% FCS, 1% non-essential amino acids, 1% of Glutamax and 1% of 100× penicillin/streptomycin and incubated overnight at 37° C., 5% CO2, 100% relative humidity. […]

[1] = read-out: Genotype-1b replicon EC50 Range
[2] = read-out: Genotype-1b replicon EC50

Row | Structure (SMILES) | EC50 [1] [nM] | EC50 [2] [nM]
1 | COC(=O)N[C@H]1CCCCOCc2[nH]c(nc2-c2ccc(-c3ccc(-c4c[nH]c([C@@H]5CCCN5C(=O)[C@@H](NC(=O)OC)C(C)C)n4)cc3)cc2)[C@@H]2CCCN2C1=O [Example 83] | < 0.1 | –
2 | COC(=O)N[C@H]1CCCCOCc2[nH]c(nc2-c2ccc(-c3ccc(-c4c[nH]c([C@@H]5CC6(CC6)CN5C(=O)[C@@H](NC(=O)OC)C(C)C)n4)cc3)cc2)[C@@H]2CCCN2C1=O [Example 258] | < 0.1 | 0.014
3 | COC(=O)N[C@H](C(=O)N1CCC[C@H]1c1nc(-c2ccc(-c3ccc(-c4nc5[nH]c4COCCC[C@H](C)[C@H](NC(=O)OC)C(=O)N4CCC[C@@H]54)cc3)cc2)c[nH]1)C(C)C [Example 317] | < 0.1 | –
4 | COC(=O)N[C@H](C(=O)N1CCC[C@H]1c1nc(-c2ccc(-c3ccc(-c4nc5[nH]c4COC/C=C/[C@H](C)[C@H](NC(=O)OC)C(=O)N4CCC[C@@H]54)cc3)cc2)c[nH]1)C(C)C [Example 318] | 0.1 to 1 | –
5 | COC(=O)N[C@H]1CCCCCOCc2[nH]c(nc2-c2ccc(-c3ccc(-c4c[nH]c([C@@H]5CCCN5C(=O)[C@@H](NC(=O)OC)C(C)C)n4)cc3)cc2)[C@@H]2CCCN2C1=O [Example 322] | < 0.1 | –
6 | COC(=O)N[C@H]1Cc2cc(on2)COCc2[nH]c(nc2-c2ccc(-c3ccc(-c4c[nH]c([C@@H]5CCCN5C(=O)[C@@H](NC(=O)OC)C(C)C)n4)cc3)cc2)[C@@H]2CCCN2C1=O [Example 333] | < 0.1 | 0.083
7 | COC(=O)N[C@H]1CCCCOCc2[nH]c(nc2-c2ccc(-c3ccc(-c4nc5[nH]c4COCCCC[C@H](NC(=O)OC)C(=O)N4CCC[C@@H]54)cc3)cc2)[C@@H]2CCCN2C1=O [Example 336] | 0.1 to 1 | 0.175
8 | COC(=O)N[C@H]1C/C=C/COCc2[nH]c(nc2-c2ccc(-c3ccc(-c4c[nH]c([C@@H]5CCCN5C(=O)[C@@H](NC(=O)OC)C(C)C)n4)cc3)cc2)[C@@H]2CCCN2C1=O [Example 344] | < 0.1 | 0.047
9 | COC(=O)N[C@H](C(=O)N1CCC[C@H]1c1nc(-c2ccc(-c3ccc(-c4nc5[nH]c4COCCCCO[C@H](C)[C@H](NC(=O)OC)C(=O)N4CCC[C@@H]54)cc3)cc2)c[nH]1)C(C)C [Example 349] | < 0.1 | –
10 | COC(=O)N[C@H]1COCCCCOCc2[nH]c(nc2-c2ccc(-c3ccc(-c4c[nH]c([C@@H]5CCCN5C(=O)[C@@H](NC(=O)OC)C(C)C)n4)cc3)cc2)[C@@H]2CCCN2C1=O [Example 353] | < 0.1 | 0.023
11 | COC(=O)N[C@H]1CCCCC/C=C\COCc2[nH]c(nc2-c2ccc(-c3ccc(-c4c[nH]c([C@@H]5CCCN5C(=O)[C@@H](NC(=O)OC)C(C)C)n4)cc3)cc2)[C@@H]2CCCN2C1=O [Example 355] | < 0.1 | –
12 | COC(=O)N[C@H]1CCCCCCCCOCc2[nH]c(nc2-c2ccc(-c3ccc(-c4c[nH]c([C@@H]5CCCN5C(=O)[C@@H](NC(=O)OC)C(C)C)n4)cc3)cc2)[C@@H]2CCCN2C1=O [Example 356] | < 0.1 | –
13 | COC(=O)N[C@H]1C/C=C/COCc2[nH]c(nc2-c2ccc(-c3ccc(-c4c[nH]c([C@@H]5CCCN5C(=O)[C@@H](NC(=O)OC)C(C)C)n4)cc3)cc2)CN(C)C1=O [Example 359] | > 1 | –
14 | COC(=O)N[C@H]1CCCCCCOCc2[nH]c(nc2-c2ccc(-c3ccc(-c4c[nH]c([C@@H]5CCCN5C(=O)[C@@H](NC(=O)OC)C(C)C)n4)cc3)cc2)[C@@H]2CCCN2C1=O [Example 366] | < 0.1 | –
15 | COC(=O)N[C@H]1CCCCCCCOCc2[nH]c(nc2-c2ccc(-c3ccc(-c4c[nH]c([C@@H]5CCCN5C(=O)[C@@H](NC(=O)OC)C(C)C)n4)cc3)cc2)[C@@H]2CCCN2C1=O [Example 368] | < 0.1 | –
